Reference: publication PMC8778091, “In Silico-Based Discovery of Natural Anthraquinones with Potential against Multidrug-Resistant E. coli” (Pharmaceuticals, 2022)
Converted amounts (≈) assume the structure as drawn. Where two headings read alike, the source gives them in different places.

How the values were obtained:
[1] = system: VRSA (clinical isolate); assay: MIC, agar dilution method, VRSA; assay type: cell-based, S. aureus; details: range 1-64 µg/mL, 37 °C, 18-20 h; for MIC: Staphylococcus aureus, VRSA, read-out: MIC VRSA
Experimental: (§1) The selected top-scoring hits were evaluated for their antibacterial effect against two clinical multidrug-resistant strains of enterotoxigenic E. coli. Both isolates were isolated as clinical samples from Beni Suef general hospital, Beni Suef, Egypt. […] MRSA (ATCC 25529) and VRSA (clinical isolate from Beni Suef general hospital, Beni Suef, Egypt) were also used to further evaluate the tested compounds against resistant Gram-positive bacteria.
(§2) Minimum inhibitory concentrations for the test compounds were analyzed following the standard agar dilution method using Meuller-Hinton (MH) agar medium against different Gram-negative and positive bacteria (Table 1). Firstly, the tested compounds were prepared as a stock suspension with a 10 mg/mL final concentration in DMSO. Subsequently, the prepared stocks were diluted in 10 mL molten soft agar (0.5% agar) to obtain a concentration range from 1–64 µg/mL, then mixed and poured over a surface of MH agar (2% agar) plates and left for solidification. Finally, exponentially grown (O.D 600 nm of 0.6) test strains (Table 1) were diluted to a final density of 10^6 CFU/mL in MH broth and spotted (1 µL/spot) over the soft agar. Then, the plates were left for drying and incubated at 37 °C for 18–20 h. Controls were conducted using DMSO seeded soft agar. At the end of the experiment, the MIC for each compound was identified as the minimum concentration that inhibited the growth of the tested strain. The experiments were carried out in triplicates.

[2] = system: E. coli (MDR) b clinical isolate; assay: MIC, agar dilution method, E. coli MDR b; assay type: cell-based; details: for MIC: Escherichia coli, range 1-64 µg/mL, 37 °C, 18-20 h, read-out: MIC E. coli (MDR) b; for MIC (antibiotic susceptibility) E. coli MDRb: Table S3, unpublished data of microbiology unit, Beni Suef general hospital, same procedure
Experimental: as §1, §2

[3] = system: MRSA (ATCC 25529); assay: MIC, agar dilution method, MRSA; assay type: cell-based, S. aureus; details: Staphylococcus aureus; range 1-64 µg/mL, 37 °C, 18-20 h; read-out: MIC MRSA
Experimental: as §1, §2

[4] = system: E. coli (MDR) a clinical isolate; assay: MIC, agar dilution method, E. coli MDR a; assay type: cell-based; details: for MIC: Escherichia coli
Experimental: as §1, §2

[5] = target: T1, E. coli gyrase B43 domain (Gyr-B) (Escherichia coli, UniProt P0AES6); assay: biochemical; assay type: biochemical
T1 construct: 20 μL of the enzyme (E. coli gyrase B43 domain; 20 μM concentration); purchased Inspiralis ATPG001
Experimental: (§3) Ddl-B and Gyr-B activity assays were performed according to the manufacturer protocols (ProFoldin, Catalogue No. DDA100KE, and Inspiralis, Catalogue No. ATPG001, UK).
Gyr-B assay measured the capability of the tested compounds to hinder the ATPase activity of Gyr-B subunits. This assay links the hydrolysis of ATP by gyrase to the conversion of NADH to NAD^+, which can be measured by a change in absorbance at 340 nm. The assay reactions and detection were performed using a 96-well plate. […] First, the assay mix was prepared by mixing 20 μL of the assay buffer (50 mM Tris.HCl (pH 7.5), 1 mM EDTA, 5 mM magnesium chloride, 5 mM DTT, 10% (w/v) glycerol), 1 μL phosphoenolpyruvate (80 mM in water), 1.5 μL pyruvate kinase/lactate dehydrogenase stock, 2 μL NADH (20 mM in water), and 58.8 μL water. Thereafter, 63.3 μL of assay mix and 10 μL of the test compound solution and 20 μL of the enzyme (E. coli gyrase B43 domain; 20 μM concentration) were added into the wells and mixed by pipetting. After incubation for 10 min at 25 °C, 6.7 uL of ATP (30 mM) was added to each well. After 60 min of incubation at 25 °C, the absorbance was measured at 340 nm.

[6] = target: T2, E. coli DAla:D-Ala ligase (Ddl-B) (Escherichia coli, UniProt P07862); assay: Ddl-B enzymatic activity assay (inorganic phosphate, absorbance 650 nm); assay type: biochemical; details: for IC50: 10-1000 µM tested, read-out: IC50 Ddl-B; for Ki: read-out: Ki Ddl-B
T2 construct: purchased ProFoldin DDA100KE
Experimental: as §3
Ddl-B enzymatic activity assay is based on measuring the inorganic phosphate generated from the D-Alanine: D-Alanine ligation reaction. The inorganic phosphate is detected by absorbance at 650 nm. The assay reactions and detection were performed by using a 96-well plate. Different concentrations of the test compounds and the reference inhibitor D-cycloserine were prepared in DMSO (from 10 µM to 1000 µM). […] Thereafter, 33 μL of 10× enzyme substrate was prepared by mixing 3.3 μL of 100× enzyme substrate with 29.7 μL of water. Finally, 27 μL of the premix with 3 μL of the 10× enzyme substrate in each well were mixed. After 60 min of incubation at 37 °C, 45 μL of MPA3000 dye was added into the 30 μL of the reaction mixture. After 5 min of incubation, absorbance was measured at 650 nm.

[7] = Cellular toxicity against normal fibroblasts WI-38 (MTT); assay type: cell-based; details: human
Experimental: All selected top-scoring compounds were tested for their cellular toxicity against human fibroblasts cell line (WI-38). Cell line (WI-38; ATCC: CCL-75) was maintained in earth RPMI 1640 medium comprising 10% heat-inactivated fetal bovine serum (FBS) and grown at 37 °C and 5% CO2. The cell line was seeded on 96-well cell culture plates (2 × 10^4 cells/well). Cells were stimulated with tested compounds at different concentrations (from 1 to 50 µM) overnight in triplicates. Doxorubicin was used as a positive control. Cell viability was assessed by MTT assay. To normalize cell viability values, each plate included a triplicate of untreated cells considered as 100% viability, and a triplicate of cells treated with a cytotoxic mixture (200 ng/mL TNF, 200 ng/mL CD95L, 200 ng/mL TRAIL, 5 μg/mL CHX, 1% (w/v) sodium azide […]) considered as 0% viability. All other viability values were normalized according to the averages of these triplicates and analyzed by the Graph Pad Prism 5 software (La Jolla, CA, USA).

[8] = system: tested bacterial strains (E. coli MDR, MRSA, VRSA); assay: Antibacterial evaluation, tested bacterial strains taken together; assay type: cell-based; details: Escherichia coli; E. coli MDR, MRSA, VRSA
Experimental: as §1, §2

[9] = range 1-64 µg/mL, 37 °C, 18-20 h, read-out: MIC E. coli (MDR) a
[10] = MDR isolates a and b not distinguished, read-out: MIC E. coli
[11] = WI-38 normal fibroblast cells, WI-38, 1 to 50 µM overnight, MTT, read-out: CC50

CO[C@@H]1[C@@H](OC(N)=O)[C@@H](O)[C@H](Oc2ccc3c(O)c(NC(=O)c4ccc(O)c(CC=C(C)C)c4)c(=O)oc3c2C)OC1(C)C [Novobiocin, reference compound]
MIC [1]: 1 µg/mL (≈ 1.63 µM)
MIC [2]: 64 µg/mL (≈ 104 µM)
MIC [3]: 1 µg/mL (≈ 1.63 µM)
MIC [4, 9]: 64 µg/mL (≈ 104 µM)

CO/N=C(\C(=O)N[C@@H]1C(=O)N2C(C(=O)O)=C(COC(C)=O)CS[C@H]12)c1csc(N)n1 [Cefotaxime, reference compound]
MIC (antibiotic susceptibility) E. coli MDRb [2]: 64 µg/mL (≈ 141 µM)
MIC (antibiotic susceptibility) E. coli MDRa ([4]; Table S3, unpublished data of microbiology unit, Beni Suef general hospital, same procedure): 32 µg/mL (≈ 70.3 µM)

CC[C@H]1OC(=O)[C@H](C)[C@@H](O[C@H]2C[C@@](C)(OC)[C@@H](O)[C@H](C)O2)[C@H](C)[C@@H](O[C@@H]2O[C@H](C)C[C@H](N(C)C)[C@H]2O)[C@](C)(O)C[C@@H](C)CN(C)[C@H](C)[C@@H](O)[C@]1(C)O [Azithromycin, reference compound]
MIC (antibiotic susceptibility) E. coli MDRb [2]: 16 µg/mL (≈ 21.4 µM)

Cc1cc(O)c2c(c1)C(=O)c1cc(O)cc(O)c1C2=O [Emodin]
MIC [1]: 2 µg/mL (≈ 7.4 µM)
MIC [2]: 2 µg/mL (≈ 7.4 µM)
IC50 [5]: 0.81 ± 0.3 µM
Ki [5]: 0.22 ± 0.1 µM
MIC [3]: 2 µg/mL (≈ 7.4 µM)
MIC [4, 9]: 2 µg/mL (≈ 7.4 µM)
Ddl-B inhibition in words [6]: more potent
IC50 [6]: 216 ± 5.6 µM
Ki [6]: 102 ± 4.8 µM
CC50 [7]: 49.2 ± 1.39 µM
MIC [8]: 2 to 4 µg/mL (≈ 7.4 to 14.8 µM)

COc1cccc2c1C(=O)c1c(O)c3c(c(O)c1C2=O)C[C@@](O)(C(=O)CO)C[C@@H]3O[C@H]1C[C@H](N)[C@H](O)[C@H](C)O1 [Doxorubicin, reference compound]
CC50 [7]: 26.2 ± 0.61 µM

O=C1c2cccc(O)c2C(=O)c2cccc(O)c21 [Anthrarufin]
MIC [1]: > 64 µg/mL
MIC VRSA [1]: >64 µg/mL
MIC [2]: 2 µg/mL (≈ 8.33 µM)
Gyr-B inhibition in words [5]: moderate activity
IC50 [5]: 6.93 ± 1.6 µM
Ki [5]: 4.1 ± 1.6 µM
MIC [3]: 2 µg/mL (≈ 8.33 µM)
MIC [4, 10]: 2 µg/mL (≈ 8.33 µM)
MIC [4, 9]: 2 µg/mL (≈ 8.33 µM)
Ddl-B inhibition in words [6]: comparable to the reference inhibitor D-cycloserine
IC50 [6]: 350 ± 7.4 µM
Ki [6]: 345 ± 10.1 µM
CC50 [7, 11]: 29.7 ± 0.76 µM

NCC[C@H](O)C(=O)N[C@@H]1C[C@H](N)[C@@H](O[C@H]2O[C@H](CN)[C@@H](O)[C@H](O)[C@H]2O)[C@H](O)[C@H]1O[C@H]1O[C@H](CO)[C@@H](O)[C@H](N)[C@H]1O [Amikacin, reference compound]
MIC (antibiotic susceptibility) E. coli MDRb [2]: 8 µg/mL (≈ 13.7 µM)

O=C1c2ccccc2C(=O)c2c(O)ccc(O)c21 [Quinizarin]
MIC [1]: 16 µg/mL (≈ 66.6 µM)
MIC [2]: 64 µg/mL (≈ 266 µM)
Gyr-B inhibition in words [5]: moderately inhibited
IC50 [5]: 38.8 ± 2.3 µM
Ki [5]: 17.9 ± 1.4 µM
MIC [3]: 64 µg/mL (≈ 266 µM)
MIC [4, 10]: 64 µg/mL (≈ 266 µM)
MIC [4, 9]: 64 µg/mL (≈ 266 µM)
Ddl-B inhibition in words [6]: moderately inhibited
IC50 [6]: 515 ± 8.3 µM
Ki [6]: 230 ± 8.3 µM
CC50 [7, 11]: 20.1 ± 0.56 µM

COc1cc(O)c2c(c1)C(=O)c1cc(C)cc(O)c1C2=O [Physcion]
MIC [1]: 2 µg/mL (≈ 7.04 µM)
MIC [2]: 2 µg/mL (≈ 7.04 µM)
IC50 [5]: 10.9 ± 0.5 µM
Ki [5]: 6.6 ± 0.9 µM
MIC [3]: 2 µg/mL (≈ 7.04 µM)
MIC [4, 9]: 2 µg/mL (≈ 7.04 µM)
Ddl-B inhibition in words [6]: more potent
IC50 [6]: 244 ± 7.2 µM
Ki [6]: 119 ± 9.1 µM
CC50 [7, 11]: > 50 µM
